One series addresses T1, FLT3 (D835H) (Homo sapiens, UniProt P36888, D835H).
T1 sequence (P36888 27-993 D835H): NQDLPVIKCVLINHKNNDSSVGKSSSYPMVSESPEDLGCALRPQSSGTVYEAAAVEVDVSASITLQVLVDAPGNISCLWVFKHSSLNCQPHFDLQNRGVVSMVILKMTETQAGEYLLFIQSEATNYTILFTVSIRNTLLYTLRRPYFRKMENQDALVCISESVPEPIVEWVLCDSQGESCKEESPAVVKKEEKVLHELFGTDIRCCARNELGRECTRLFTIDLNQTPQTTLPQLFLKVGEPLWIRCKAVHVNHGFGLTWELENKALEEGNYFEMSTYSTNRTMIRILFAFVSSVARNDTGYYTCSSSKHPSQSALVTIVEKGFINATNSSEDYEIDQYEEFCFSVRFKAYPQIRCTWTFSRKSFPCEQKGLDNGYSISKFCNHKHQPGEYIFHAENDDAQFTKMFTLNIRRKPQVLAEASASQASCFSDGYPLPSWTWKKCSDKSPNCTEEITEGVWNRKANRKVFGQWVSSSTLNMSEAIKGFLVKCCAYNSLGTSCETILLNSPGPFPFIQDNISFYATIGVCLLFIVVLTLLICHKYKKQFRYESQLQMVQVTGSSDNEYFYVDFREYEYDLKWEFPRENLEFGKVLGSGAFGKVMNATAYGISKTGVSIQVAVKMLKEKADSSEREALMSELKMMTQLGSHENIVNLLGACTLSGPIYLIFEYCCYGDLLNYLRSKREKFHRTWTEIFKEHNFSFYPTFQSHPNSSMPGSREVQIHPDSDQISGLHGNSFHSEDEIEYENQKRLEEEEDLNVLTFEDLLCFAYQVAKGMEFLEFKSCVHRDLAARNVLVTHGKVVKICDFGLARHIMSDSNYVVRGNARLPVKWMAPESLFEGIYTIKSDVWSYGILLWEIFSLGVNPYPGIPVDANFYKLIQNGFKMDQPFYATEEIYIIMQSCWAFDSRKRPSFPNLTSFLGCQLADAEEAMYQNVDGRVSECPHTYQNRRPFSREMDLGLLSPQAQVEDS
Nature of the series: Kd determination. Format: binding.

A further series has as its system FLT3-ITD phosphorylation. Nature of the series: Western blot of FLT3 signaling in MOLM13^FLT3-ITD cells. Conditions: 1 h, read-out: FLT3 IC50 estimated from loss of FLT3-ITD phosphorylation. Type of series: cell-based.
A short description of a further series: Solubility. Type of series: physicochemical. Conditions: buffer, pH 7.4, aqueous buffer, kinetic from dmso stock.
The nature of the next series: Plasma stability. Format: in vitro ADME. The note with it: rat.
The target in the next series is CLK1 (Homo sapiens, UniProt P49759). Kind of series: Kd determination. Format: binding.
CLK1, sequence (P49759 whole entry): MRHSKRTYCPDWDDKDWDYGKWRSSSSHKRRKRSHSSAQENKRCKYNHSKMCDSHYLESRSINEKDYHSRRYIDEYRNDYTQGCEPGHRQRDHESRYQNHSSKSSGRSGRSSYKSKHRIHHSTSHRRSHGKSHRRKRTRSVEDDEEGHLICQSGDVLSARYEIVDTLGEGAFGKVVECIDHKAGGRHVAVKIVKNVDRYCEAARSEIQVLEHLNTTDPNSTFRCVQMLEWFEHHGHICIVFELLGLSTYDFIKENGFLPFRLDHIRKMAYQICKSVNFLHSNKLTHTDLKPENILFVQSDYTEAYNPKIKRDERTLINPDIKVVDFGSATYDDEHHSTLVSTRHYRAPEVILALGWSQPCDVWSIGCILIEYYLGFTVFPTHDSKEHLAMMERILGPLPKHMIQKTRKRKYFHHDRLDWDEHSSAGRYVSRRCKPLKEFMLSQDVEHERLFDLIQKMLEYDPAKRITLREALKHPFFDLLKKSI
In a further series the target is CLK4 (Homo sapiens, UniProt Q9HAZ1). Nature of the series: Kd determination. Type of series: binding.
CLK4, sequence (Q9HAZ1 whole entry, the tested form may be a part): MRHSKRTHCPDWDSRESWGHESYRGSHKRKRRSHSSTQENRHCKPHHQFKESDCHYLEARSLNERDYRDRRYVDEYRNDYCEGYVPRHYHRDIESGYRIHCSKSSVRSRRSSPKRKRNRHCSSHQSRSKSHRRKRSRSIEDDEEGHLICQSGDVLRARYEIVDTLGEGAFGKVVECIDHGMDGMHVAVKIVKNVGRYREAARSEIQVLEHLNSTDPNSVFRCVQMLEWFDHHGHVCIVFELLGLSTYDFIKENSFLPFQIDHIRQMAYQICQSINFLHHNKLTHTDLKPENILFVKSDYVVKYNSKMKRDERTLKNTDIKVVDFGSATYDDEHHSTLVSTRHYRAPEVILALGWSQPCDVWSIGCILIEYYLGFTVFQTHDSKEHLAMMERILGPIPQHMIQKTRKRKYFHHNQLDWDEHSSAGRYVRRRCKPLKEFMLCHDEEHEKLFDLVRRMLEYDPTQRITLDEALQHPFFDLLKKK
Series [1] has as its target JAK1 (JH2 domain-pseudokinase) (Homo sapiens, UniProt P23458). Kind of series: Kd determination. Format: binding.
The target in series [2] is JAK2 (JH1 domain-catalytic) (Homo sapiens, UniProt O60674). Kind of series: Kd determination. Format: binding.
JAK2 (JH1 domain-catalytic), sequence (O60674 849-1124 limits assumed): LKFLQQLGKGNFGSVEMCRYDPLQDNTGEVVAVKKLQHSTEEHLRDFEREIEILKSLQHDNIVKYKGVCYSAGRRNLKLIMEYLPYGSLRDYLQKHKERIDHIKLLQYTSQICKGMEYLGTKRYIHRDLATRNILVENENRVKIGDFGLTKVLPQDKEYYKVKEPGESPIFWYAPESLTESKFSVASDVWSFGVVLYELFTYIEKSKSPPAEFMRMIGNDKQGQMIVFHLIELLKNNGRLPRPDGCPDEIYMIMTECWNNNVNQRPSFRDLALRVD
The target of another series is NEK10 (Homo sapiens, UniProt Q6ZWH5). Nature of the series: Kd determination. Format: binding.
NEK10, sequence (Q6ZWH5 whole entry): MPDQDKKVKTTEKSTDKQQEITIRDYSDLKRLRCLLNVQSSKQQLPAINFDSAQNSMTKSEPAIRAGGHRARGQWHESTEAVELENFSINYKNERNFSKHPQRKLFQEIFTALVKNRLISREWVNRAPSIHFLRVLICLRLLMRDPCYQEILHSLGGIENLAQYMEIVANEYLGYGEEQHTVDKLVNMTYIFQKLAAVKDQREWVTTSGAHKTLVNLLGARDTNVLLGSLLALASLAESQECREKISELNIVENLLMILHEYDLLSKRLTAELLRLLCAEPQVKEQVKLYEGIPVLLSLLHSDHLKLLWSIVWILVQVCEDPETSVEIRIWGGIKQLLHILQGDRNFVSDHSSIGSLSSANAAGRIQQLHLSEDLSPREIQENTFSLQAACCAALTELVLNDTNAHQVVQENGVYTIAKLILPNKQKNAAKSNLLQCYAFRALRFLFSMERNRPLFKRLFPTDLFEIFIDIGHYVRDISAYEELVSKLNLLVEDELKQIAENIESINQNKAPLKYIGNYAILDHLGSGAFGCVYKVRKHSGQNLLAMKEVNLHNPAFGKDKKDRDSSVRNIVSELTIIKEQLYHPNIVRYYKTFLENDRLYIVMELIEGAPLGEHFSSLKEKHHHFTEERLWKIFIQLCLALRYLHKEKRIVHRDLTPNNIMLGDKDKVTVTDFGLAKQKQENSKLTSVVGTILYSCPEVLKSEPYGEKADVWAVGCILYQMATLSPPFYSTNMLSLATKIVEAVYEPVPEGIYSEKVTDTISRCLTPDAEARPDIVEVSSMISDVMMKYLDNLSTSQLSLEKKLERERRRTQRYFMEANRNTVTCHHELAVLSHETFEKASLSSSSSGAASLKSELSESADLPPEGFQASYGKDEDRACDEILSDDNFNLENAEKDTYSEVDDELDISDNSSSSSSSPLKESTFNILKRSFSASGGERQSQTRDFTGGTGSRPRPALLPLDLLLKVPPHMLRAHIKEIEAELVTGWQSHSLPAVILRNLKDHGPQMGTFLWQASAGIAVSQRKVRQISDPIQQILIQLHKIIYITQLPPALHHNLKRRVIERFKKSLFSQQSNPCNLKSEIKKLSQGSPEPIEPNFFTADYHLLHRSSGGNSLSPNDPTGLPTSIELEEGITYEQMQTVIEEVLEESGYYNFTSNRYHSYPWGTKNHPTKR
A further series has as its target PDGFRB (Homo sapiens, UniProt P09619). Nature of the series: Kd determination. Format: binding.
In a further series the target is PIK4CB (Homo sapiens, UniProt Q9UBF8). Kind of series: Kd determination. Type of series: binding.
PIK4CB, sequence (Q9UBF8 whole entry): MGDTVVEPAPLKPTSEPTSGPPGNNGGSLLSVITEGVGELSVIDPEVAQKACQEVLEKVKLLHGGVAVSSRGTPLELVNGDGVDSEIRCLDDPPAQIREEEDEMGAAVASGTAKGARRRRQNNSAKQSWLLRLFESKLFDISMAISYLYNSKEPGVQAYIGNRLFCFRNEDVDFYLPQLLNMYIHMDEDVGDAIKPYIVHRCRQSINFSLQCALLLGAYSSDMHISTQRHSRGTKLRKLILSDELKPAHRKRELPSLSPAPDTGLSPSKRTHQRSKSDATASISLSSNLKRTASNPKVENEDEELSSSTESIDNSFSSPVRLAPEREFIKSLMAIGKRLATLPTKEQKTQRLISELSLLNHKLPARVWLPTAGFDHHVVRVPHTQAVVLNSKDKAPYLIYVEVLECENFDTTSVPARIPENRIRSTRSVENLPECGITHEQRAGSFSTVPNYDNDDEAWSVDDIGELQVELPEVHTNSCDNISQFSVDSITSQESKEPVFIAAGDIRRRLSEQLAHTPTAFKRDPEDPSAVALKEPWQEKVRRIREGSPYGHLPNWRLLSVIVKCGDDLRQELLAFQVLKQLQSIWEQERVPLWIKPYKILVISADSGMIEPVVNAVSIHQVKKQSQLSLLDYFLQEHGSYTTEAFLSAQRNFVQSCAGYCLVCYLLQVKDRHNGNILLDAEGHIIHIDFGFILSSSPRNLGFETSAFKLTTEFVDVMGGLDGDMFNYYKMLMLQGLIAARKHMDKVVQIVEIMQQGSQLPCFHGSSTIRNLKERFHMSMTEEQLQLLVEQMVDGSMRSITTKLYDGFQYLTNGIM
The target of the next series is PIP5K1C (Homo sapiens, UniProt O60331). Nature of the series: Kd determination. Type of series: binding.
PIP5K1C, sequence (O60331 whole entry): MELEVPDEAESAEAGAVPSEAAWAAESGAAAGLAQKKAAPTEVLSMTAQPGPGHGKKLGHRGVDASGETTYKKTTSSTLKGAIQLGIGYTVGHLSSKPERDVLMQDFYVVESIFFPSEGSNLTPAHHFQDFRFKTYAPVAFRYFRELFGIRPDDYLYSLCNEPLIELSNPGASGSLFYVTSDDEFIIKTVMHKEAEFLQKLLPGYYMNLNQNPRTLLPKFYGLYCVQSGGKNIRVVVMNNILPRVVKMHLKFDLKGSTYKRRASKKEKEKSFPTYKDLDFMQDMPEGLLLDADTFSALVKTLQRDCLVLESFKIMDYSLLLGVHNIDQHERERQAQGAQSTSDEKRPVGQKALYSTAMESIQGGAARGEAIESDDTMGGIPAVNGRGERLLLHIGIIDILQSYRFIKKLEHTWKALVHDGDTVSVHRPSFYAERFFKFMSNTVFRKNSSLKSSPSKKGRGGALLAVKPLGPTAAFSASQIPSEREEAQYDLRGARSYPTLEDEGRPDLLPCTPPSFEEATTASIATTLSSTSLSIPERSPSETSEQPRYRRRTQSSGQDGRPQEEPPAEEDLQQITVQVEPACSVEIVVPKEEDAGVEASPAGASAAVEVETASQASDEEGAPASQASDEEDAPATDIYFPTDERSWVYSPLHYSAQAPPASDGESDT
A short description of series [3]: Liver microsomal stability. Conditions: female, CD-1, mouse, liver microsomes, pH 7.4. For orientation: Microsomes from liver hold many membrane-bound enzymes, among them those of drug oxidation.
The nature of series [4]: Liver microsomal stability. Conditions: rat, liver microsomes, pH 7.4.
A short description of series [5]: Liver microsomal stability. Conditions: dog, liver microsomes, pH 7.4.
A short description of series [6]: Liver microsomal stability. Conditions: both, human, liver microsomes, pH 7.4.
In series [7] the target is T2, recombinant human FLT3 (571–993) (Homo sapiens, UniProt P36888).
T2 sequence (P36888 571-993): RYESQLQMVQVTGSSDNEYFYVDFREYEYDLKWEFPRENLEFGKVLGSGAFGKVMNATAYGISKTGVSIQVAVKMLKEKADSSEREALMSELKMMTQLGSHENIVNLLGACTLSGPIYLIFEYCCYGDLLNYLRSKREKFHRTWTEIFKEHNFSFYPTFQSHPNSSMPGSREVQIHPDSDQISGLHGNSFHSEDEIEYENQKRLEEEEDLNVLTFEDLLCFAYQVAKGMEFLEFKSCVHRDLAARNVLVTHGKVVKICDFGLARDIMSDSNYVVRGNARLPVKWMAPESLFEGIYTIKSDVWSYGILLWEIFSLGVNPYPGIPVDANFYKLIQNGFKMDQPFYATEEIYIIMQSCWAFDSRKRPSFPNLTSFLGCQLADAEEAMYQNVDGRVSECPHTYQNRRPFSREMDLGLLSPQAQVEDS
Kind of series: biochemical. Format: biochemical.

Another series addresses AXL (Homo sapiens, UniProt P30530). Kind of series: Kd determination. Format: binding.
The target of a further series is BLK (Homo sapiens, UniProt P51451). Nature of the series: Kd determination. Type of series: binding.
The next series deals with HCK (Homo sapiens, UniProt P08631). Nature of the series: Kd determination. Format: binding.
The target of another series is IRAK1 (Homo sapiens, UniProt P51617). Nature of the series: Kd determination. Type of series: binding.
For the next series, the target named is KIT (Homo sapiens, UniProt P10721). Nature of the series: Kd determination. Type of series: binding.
For a further series, the target named is RET (V804M) (Homo sapiens, UniProt P07949, V804M). Kind of series: Kd determination. Format: binding.
A further series addresses TYRO3 (Homo sapiens, UniProt Q06418). Nature of the series: Kd determination. Type of series: binding.

Each structure is given as a SMILES string. Converted amounts (≈) assume the structure as drawn.

PDGFRB, sequence (P09619 33-1106): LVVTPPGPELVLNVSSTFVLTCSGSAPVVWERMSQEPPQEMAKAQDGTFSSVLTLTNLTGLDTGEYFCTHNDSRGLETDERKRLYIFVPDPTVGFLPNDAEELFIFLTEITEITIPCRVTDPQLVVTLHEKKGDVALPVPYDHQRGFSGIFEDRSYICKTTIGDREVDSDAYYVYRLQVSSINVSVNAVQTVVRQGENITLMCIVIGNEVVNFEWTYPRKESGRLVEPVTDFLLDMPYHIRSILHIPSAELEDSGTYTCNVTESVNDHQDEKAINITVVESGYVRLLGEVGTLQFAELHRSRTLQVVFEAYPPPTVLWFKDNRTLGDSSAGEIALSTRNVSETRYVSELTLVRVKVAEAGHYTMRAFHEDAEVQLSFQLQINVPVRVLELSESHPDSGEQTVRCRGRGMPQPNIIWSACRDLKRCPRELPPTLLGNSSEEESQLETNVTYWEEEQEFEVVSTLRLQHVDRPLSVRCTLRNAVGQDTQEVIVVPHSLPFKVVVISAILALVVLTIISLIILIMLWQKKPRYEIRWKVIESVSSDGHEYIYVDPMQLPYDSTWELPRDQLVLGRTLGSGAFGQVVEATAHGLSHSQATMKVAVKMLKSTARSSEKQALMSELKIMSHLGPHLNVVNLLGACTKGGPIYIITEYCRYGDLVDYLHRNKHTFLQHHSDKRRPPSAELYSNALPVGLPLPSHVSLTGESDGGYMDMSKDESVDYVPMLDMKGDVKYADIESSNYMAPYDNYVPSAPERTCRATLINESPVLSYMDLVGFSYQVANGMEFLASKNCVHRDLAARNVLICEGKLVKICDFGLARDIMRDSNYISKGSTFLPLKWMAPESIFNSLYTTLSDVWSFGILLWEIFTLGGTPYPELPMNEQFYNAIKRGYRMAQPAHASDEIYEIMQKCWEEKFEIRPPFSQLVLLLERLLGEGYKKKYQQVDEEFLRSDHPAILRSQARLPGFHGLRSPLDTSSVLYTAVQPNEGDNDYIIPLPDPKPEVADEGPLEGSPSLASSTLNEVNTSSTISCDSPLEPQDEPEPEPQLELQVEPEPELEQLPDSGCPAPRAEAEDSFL

For the compound `CC(C)Nc1ccnc(Nc2ccccc2-c2ccccc2)n1` [Compound 6a, N^2-([1,1′-Biphenyl]-2-yl)-N^4-isopropylpyrimidine-2,4-diamine], the Kd on FLT3 (D835H) is greater than 10000 nM.

`CC(C)Nc1ccnc(Nc2cccc(-c3cccnc3)c2)n1` [Compound 5e, N^4-Isopropyl-N^2-(3-(pyridin-3-yl)phenyl)pyrimidine-2,4-diamine]: the IC50 with FLT3-ITD phosphorylation is 50 to 100 nM. In addition, the solubility at 18 h in the series “Solubility” was found to be 26.4 ± 17 µM (≈ 8.06 µg/mL). The same compound registered a plasma stability in the series “Plasma stability” greater than 48 h. Further, the Kd at CLK1 was determined as 260 nM; on CLK4 it was 1100 nM; in series [1], 28 nM; in series [2], 480 nM; at NEK10 it was 2000 nM; on PDGFRB, 28 nM. In addition, the Kd was 330 nM on PIK4CB, 1300 nM at PIP5K1C and 1.2 nM at FLT3 (D835H). Besides, the CLint scaled at 4 µM is 180 ± 19.4 mL/min/kg in [3], 41.7 ± 2.7 mL/min/kg in series [4], 28.2 ± 1.9 mL/min/kg in series [5] and 10 ± 0.6 mL/min/kg in [6]. Further, the half-life in series [3] fell in the range of 12 to 60 min. Also, the half-life at 4 µM in series [3] was 18 ± 1.8 min; in [4] it was 66 ± 6 min; in [5], 72 ± 6 min; in series [6], 126 ± 6 min.

As to `c1cncc(-c2cccc(Nc3nccc(NC4CCCCC4)n3)c2)c1` [Compound 1, N^4-Cyclohexyl-N^2-(3-(pyridin-3-yl)phenyl)pyrimidine-2,4-diamine], the 50% inhibitory concentration (IC50) is less than 6 nM in series [7] (FLT3 IC50, 100 μM ATP) and 116 nM in [7] (FLT3 IC50, 2.5 mM ATP). This compound registered a solubility at 18 h in the series “Solubility” of 0.4 ± 0.9 µM (≈ 0.138 µg/mL). Further, the Kd on AXL is 2100 nM; at BLK it was 3900 nM; at CLK1, 430 nM; at CLK4 it was 690 nM; at HCK, 2100 nM; at IRAK1 it was 1500 nM. Further, the Kd at KIT came out at 1500 nM; on NEK10, 410 nM; at PDGFRB it was 120 nM; at PIK4CB, 370 nM; at PIP5K1C it was 610 nM; on RET (V804M), 1400 nM. Moreover, the Kd at TYRO3 was 2700 nM; on FLT3 (D835H) it was 22 nM. Moreover, the CLint scaled at 4 µM in series [3] worked out at 26.5 ± 1.6 mL/min/kg; in [4] it was 44.9 ± 1.4 mL/min/kg; in series [5], 49.4 ± 3.9 mL/min/kg; in series [6], 26.6 ± 2.2 mL/min/kg. Further, the half-life at 4 µM in series [3] is 15.6 ± 1.8 min; in series [4] it was 62.4 ± 1.8 min; in [5] it was 42 ± 6 min; in series [6], 48 ± 6 min.

Usually Kd stands for a measure of binding affinity in units of concentration. Read a low Kd as tighter binding. In general, IC50 refers to the concentration that gives 50% inhibition. The solubility is the concentration that dissolves in the medium under given conditions. The low end stands for a poorly soluble substance, the high end for a readily soluble substance. A word on the CLint scaled: it is the rate of metabolic loss divided by the concentration. A lower CLint scaled goes with greater metabolic stability. In general, half-life refers to the time in which the quantity being followed falls by half. Read a high half-life as slow decline.

The values are drawn from article PMC5452050 (ACS Omega, 2017).
